# Assay results from patent US20250230193A1, “CYCLIC COMPOUND HAVING SELECTIVE KRAS INHIBITORY EFFECT ON HRAS AND NRAS” (CHUGAI SEIYAKU KABUSHIKI KAISHA, priority 2022, published 2025).
# Assays:
# [1] = biological target: GDP-bound HRAS wild-type protein (Homo sapiens, UniProt P01112); assay: Binding to HRAS by surface plasmon resonance (SPR), Single Cycle Kinetics; settings: KD ratio HRAS/KRAS, class symbols
# [2] = biological target: GDP-bound NRAS wild-type protein (Homo sapiens, UniProt P01111); assay: Binding to NRAS by surface plasmon resonance (SPR), Single Cycle Kinetics; settings: KD ratio NRAS/KRAS, class symbols
# Chain of GDP-bound NRAS wild-type protein (P01111 whole entry): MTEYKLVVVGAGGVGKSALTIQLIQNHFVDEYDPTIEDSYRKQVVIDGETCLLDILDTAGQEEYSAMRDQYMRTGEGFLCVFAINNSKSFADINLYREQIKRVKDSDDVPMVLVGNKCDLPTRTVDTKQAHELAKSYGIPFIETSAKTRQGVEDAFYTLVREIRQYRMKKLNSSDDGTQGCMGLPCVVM
# Chain of GDP-bound HRAS wild-type protein (P01112 whole entry): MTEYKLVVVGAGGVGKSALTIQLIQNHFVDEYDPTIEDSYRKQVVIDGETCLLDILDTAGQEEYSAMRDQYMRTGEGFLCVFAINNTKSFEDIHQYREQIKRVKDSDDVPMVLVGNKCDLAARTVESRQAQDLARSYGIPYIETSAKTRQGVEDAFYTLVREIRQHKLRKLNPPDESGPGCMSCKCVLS
SMILES,HRAS/KRAS (ratio of KD value with respect to GDP-bound HRAS wild-type protein to KD value with respect to KRAS) [1],NRAS/KRAS (ratio of KD value with respect to GDP-bound NRAS wild-type protein to KD value with respect to KRAS) [2]
CCC(CC)[C@H]1C(=O)N(C)[C@H](C(=O)N(C)C)CC(=O)N(C)[C@@H](COC)C(=O)N[C@@H]([C@@H](C)CC)C(=O)N(C)CC(=O)N(C)[C@H]2C/C=C\CCN(C2=O)[C@@H](Cc2ccc(C)cc2)C(=O)N(C)CC(=O)N[C@@H](CCc2cc(F)c(C(F)(F)F)c(F)c2)C(=O)N2CCCCC[C@H]2C(=O)NC2(CC(C)(C)C2)C(=O)N1C [PP2960],A (a compound having 10 or more and less than 20 is denoted as A),A (a compound having 10 or more and less than 20 is denoted as A)
CCC(CC)[C@H]1C(=O)N(C)[C@H](C(=O)N(C)C)CC(=O)N(C)[C@@H](COC)C(=O)N[C@@H]([C@@H](C)CC)C(=O)N(C)CC(=O)N(C)[C@H]2C/C=C\CCN(C2=O)[C@@H](Cc2ccc(C(F)(F)F)cc2)C(=O)N(C)CC(=O)N[C@@H](CCc2cc(F)c(C(F)(F)F)c(F)c2)C(=O)N2CC3(CC3)C[C@H]2C(=O)NC2(CC(C)(C)C2)C(=O)N1C [PP2961],A (a compound having 10 or more and less than 20 is denoted as A),AA (a compound having 20 or more is denoted as AA)
CCC[C@H]1C(=O)N[C@@H]([C@@H](C)CC)C(=O)N(C)CC(=O)N(C)[C@H]2C/C=C\CCN(C2=O)[C@@H](Cc2ccc(C)cc2)C(=O)N(C)CC(=O)N[C@@H](CCc2ccc(Cl)c(Cl)c2)C(=O)N2CCCCC[C@H]2C(=O)NC2(CC(C)(C)C2)C(=O)N(C)[C@@H](C(CC)CC)C(=O)N(C)[C@H](C(=O)N(C)C)CC(=O)N1C [PP2962],A (a compound having 10 or more and less than 20 is denoted as A),AA (a compound having 20 or more is denoted as AA)
CCC(CC)[C@H]1C(=O)N(C)[C@H](C(=O)N(C)C)CC(=O)N(C)[C@@H](COC)C(=O)N[C@@H]([C@@H](C)CC)C(=O)N(C)CC(=O)N(C)[C@H]2C/C=C\CCN(C2=O)[C@@H](Cc2ccc(C)cc2)C(=O)N(C)CC(=O)N[C@@H](CCc2cc(F)c(C(F)(F)F)c(F)c2)C(=O)N2CC3(CC3)C[C@H]2C(=O)NC2(CC(C)(C)C2)C(=O)N1C [PP2963],A (a compound having 10 or more and less than 20 is denoted as A),AA (a compound having 20 or more is denoted as AA)
CCC[C@H]1C(=O)N[C@@H]([C@@H](C)CC)C(=O)N(C)CC(=O)N(C)[C@H]2C/C=C\CCN(C2=O)[C@@H](Cc2ccc(C(F)(F)F)cc2)C(=O)N(C)CC(=O)N[C@@H](CCc2ccc(C(F)(F)F)c(Cl)c2)C(=O)N2CCCCC[C@H]2C(=O)NC2(CC(C)(C)C2)C(=O)N(C)[C@@H](C(CC)CC)C(=O)N(C)[C@H](C(=O)N(C)C)CC(=O)N1C [PP2964],A (a compound having 10 or more and less than 20 is denoted as A),AA (a compound having 20 or more is denoted as AA)
CCC(CC)[C@H]1C(=O)N(C)[C@H](C(=O)N(C)C)CC(=O)N(C)[C@@H](COC)C(=O)N[C@@H]([C@@H](C)CC)C(=O)N(C)CC(=O)N(C)[C@H]2C/C=C\CCN(C2=O)[C@@H](Cc2ccc(C(F)(F)F)cc2)C(=O)N(C)CC(=O)N[C@@H](CCc2ccc(C(F)(F)F)c(Cl)c2)C(=O)N2CC3(CC3)C[C@H]2C(=O)NC2(CC(C)(C)C2)C(=O)N1C [PP2965],A (a compound having 10 or more and less than 20 is denoted as A),AA (a compound having 20 or more is denoted as AA)
CCC(CC)[C@H]1C(=O)N(C)[C@H](C(=O)N(C)C)CC(=O)N(C)[C@@H](COC)C(=O)N[C@@H]([C@@H](C)CC)C(=O)N(C)CC(=O)N(C)[C@H]2C/C=C\CCN(C2=O)[C@@H](Cc2ccc(C)cc2)C(=O)N(C)CC(=O)N[C@@H](CCc2ccc(C(F)(F)F)c(Cl)c2)C(=O)N2CCCCC[C@H]2C(=O)NC2(CC(C)(C)C2)C(=O)N1C [PP2966],A (a compound having 10 or more and less than 20 is denoted as A),A (a compound having 10 or more and less than 20 is denoted as A)
CCC(CC)[C@H]1C(=O)N(C)[C@H](C(=O)N(C)C)CC(=O)N(C)[C@@H](COC)C(=O)N[C@@H]([C@@H](C)CC)C(=O)N(C)CC(=O)N(C)[C@H]2C/C=C\CCN(C2=O)[C@@H](Cc2ccc(C)cc2)C(=O)N(C)CC(=O)N[C@@H](CCc2ccc(C(F)(F)F)c(Cl)c2)C(=O)N2CC3(CC3)C[C@H]2C(=O)NC2(CC(C)(C)C2)C(=O)N1C [PP2967],A (a compound having 10 or more and less than 20 is denoted as A),AA (a compound having 20 or more is denoted as AA)
CCC[C@H]1C(=O)N[C@@H]([C@@H](C)CC)C(=O)N(C)CC(=O)N(C)[C@H]2C/C=C\CCN(C2=O)[C@@H](Cc2ccc(C(F)(F)F)cc2)C(=O)N(C)CC(=O)N[C@@H](CCc2ccc(C(F)(F)F)c(OC)c2)C(=O)N2CCCCC[C@H]2C(=O)NC2(CC(C)(C)C2)C(=O)N(C)[C@@H](C(CC)CC)C(=O)N(C)[C@H](C(=O)N(C)C)CC(=O)N1C [PP2968],A (a compound having 10 or more and less than 20 is denoted as A),AA (a compound having 20 or more is denoted as AA)
CCC[C@H]1C(=O)N[C@@H]([C@@H](C)CC)C(=O)N(C)CC(=O)N(C)[C@H]2C/C=C\CCN(C2=O)[C@@H](Cc2ccc(C(F)(F)F)cc2)C(=O)N(C)CC(=O)N[C@@H](CCc2ccc(C(F)(F)F)c(Cl)c2)C(=O)N2C[C@H](OCC)C[C@H]2C(=O)NC2(CC(C)(C)C2)C(=O)N(C)[C@@H](CC(C)(C)C)C(=O)N(C)[C@H](C(=O)N(C)C)CC(=O)N1C [PP2969],A (a compound having 10 or more and less than 20 is denoted as A),AA (a compound having 20 or more is denoted as AA)
CCC(CC)[C@H]1C(=O)N(C)[C@H](C(=O)N(C)C)CC(=O)N(C)[C@@H](COC)C(=O)N[C@@H]([C@@H](C)CC)C(=O)N(C)CC(=O)N(C)[C@H]2C/C=C\CCN(C2=O)[C@@H](Cc2ccc(C)cc2)C(=O)N(C)CC(=O)N[C@@H](CCc2ccc(C(F)(F)F)c(OC)c2)C(=O)N2CCCCC[C@H]2C(=O)NC2(CC(C)(C)C2)C(=O)N1C [PP2970],A (a compound having 10 or more and less than 20 is denoted as A),A (a compound having 10 or more and less than 20 is denoted as A)
